Reference: paper doi:10.1101/2024.11.06.622220v2 (biorxiv, 2024)
Where two headings read alike, the source gives them in different places.

Tests used:
JaPTAL [1] = test: PAL activity kinetics, Michaelis-Menten; type: biochemical, Joinvillea ascendens; conditions: only the range for graminid PTALs is in the text
JaPTAL [2] = conditions: read-out: apparent Km; also printed as 11.0 μM

| SMILES | Km (JaPTAL [1]) | Km (JaPTAL [2]) |
| --- | --- | --- |
| N[C@@H](Cc1ccccc1)C(=O)O [Phe] | 65.6 ± 1.4 µM |  |
| N[C@@H](Cc1ccc(O)cc1)C(=O)O [Tyr] |  | 10.9 µM |
